Measured values from ChEMBL document CHEMBL5036365, “A Molecular Networking Based Discovery of Diketopiperazine Heterodimers and Aspergillicins from Aspergillus caelatus” (J Nat Prod, 2022).
The source made the active and inactive calls.

What was measured:
HepG2 [1] = assay: Cytotoxicity against human HepG2 cells at 12.5 ug/ml treated for 72 hrs by MTT assay; assay type: functional, cell-based; details: dose 12.5 µg/ml
Botrytis cinerea [2] = assay: Antifungal activity against Botrytis cinerea B05.10 at 50 ug/ml incubated for 24 hrs by agar based assay; assay type: functional, organism-based; details: dose 50.0 µg/ml
Pyricularia grisea [3] = assay: Antifungal activity against Magnaporthe grisea CF-105765 at 50 ug/ml incubated for 24 hrs by agar based assay; assay type: functional, organism-based; details: dose 50.0 µg/ml
Fusarium graminearum [4] = assay: Antifungal activity against Fusarium graminearum BRFM 1982 at 50 ug/ml incubated for 24 hrs by agar based assay; assay type: functional, organism-based; details: dose 50.0 µg/ml
HepG2 [5] = assay: Cytotoxicity against human HepG2 cells at 25 ug/ml treated for 72 hrs by MTT assay; assay type: functional, cell-based; details: dose 25.0 µg/ml
Fusarium graminearum [6] = assay: Antifungal activity against Fusarium graminearum BRFM 1982 at 100 ug/ml incubated for 24 hrs by agar based assay; assay type: functional, organism-based; details: dose 100.0 µg/ml
Pyricularia grisea [7] = assay: Antifungal activity against Magnaporthe grisea CF-105765 at 100 ug/ml incubated for 24 hrs by agar based assay; assay type: functional, organism-based; details: dose 100.0 µg/ml
Botrytis cinerea [8] = assay: Antifungal activity against Botrytis cinerea B05.10 at 100 ug/ml incubated for 24 hrs by agar based assay; assay type: functional, organism-based; details: dose 100.0 µg/ml
Fusarium graminearum [9] = assay: Antifungal activity against Fusarium graminearum BRFM 1982 at 160 ug/ml incubated for 24 hrs by agar based assay; assay type: functional, organism-based; details: dose 160.0 µg/ml
HepG2 [10] = assay: Cytotoxicity against human HepG2 cells at 40 ug/ml treated for 72 hrs by MTT assay; assay type: functional, cell-based; details: dose 40.0 µg/ml
Pyricularia grisea [11] = assay: Antifungal activity against Magnaporthe grisea CF-105765 at 160 ug/ml incubated for 24 hrs by agar based assay; assay type: functional, organism-based; details: dose 160.0 µg/ml
Botrytis cinerea [12] = assay: Antifungal activity against Botrytis cinerea B05.10 at 160 ug/ml incubated for 24 hrs by agar based assay; assay type: functional, organism-based; details: dose 160.0 µg/ml
Pyricularia grisea [13] = assay: Antifungal activity against Magnaporthe grisea CF-105765 at 80 ug/ml incubated for 24 hrs by agar based assay; assay type: functional, organism-based; details: dose 80.0 µg/ml
HepG2 [14] = assay: Cytotoxicity against human HepG2 cells at 20 ug/ml treated for 72 hrs by MTT assay; assay type: functional, cell-based; details: dose 20.0 µg/ml
Botrytis cinerea [15] = assay: Antifungal activity against Botrytis cinerea B05.10 at 80 ug/ml incubated for 24 hrs by agar based assay; assay type: functional, organism-based; details: dose 80.0 µg/ml
Fusarium graminearum [16] = assay: Antifungal activity against Fusarium graminearum BRFM 1982 at 80 ug/ml incubated for 24 hrs by agar based assay; assay type: functional, organism-based; details: dose 80.0 µg/ml

Measured: Activity

CN1C(=O)[C@H](Cc2c[nH]c3cc([C@@]45C[C@H]6C(=O)N(C)[C@H](Cc7ccccc7)C(=O)N6[C@@H]4Nc4ccccc45)ccc23)NC(=O)[C@H]1Cc1ccccc1
inactive: HepG2 [1] | Botrytis cinerea [2] | Pyricularia grisea [3] | Fusarium graminearum [4]

CN1C(=O)[C@H](Cc2cn([C@@]34C[C@H]5C(=O)N(C)[C@H](Cc6ccccc6)C(=O)N5[C@@H]3Nc3ccccc34)c3ccccc23)NC(=O)[C@H]1Cc1ccccc1
inactive: HepG2 [5] | Fusarium graminearum [6] | Pyricularia grisea [7] | Botrytis cinerea [8]

CC[C@H](C)[C@H]1NC(=O)[C@@H](NC(C)=O)[C@@H](C)OC(=O)[C@H](C(C)C)NC(=O)[C@H](Cc2ccc(OC)cc2)N(C)C(=O)[C@@H]2CCCN2C(=O)[C@@H]2CCCN2C1=O
inactive: Fusarium graminearum [9] | HepG2 [10] | Pyricularia grisea [11] | Botrytis cinerea [12]

COc1ccc(C[C@H]2C(=O)N[C@@H](C(C)C)C(=O)O[C@H](C)[C@H](NC(C)=O)C(=O)N[C@H](C(C)C)C(=O)N3CCC[C@H]3C(=O)N3CCC[C@H]3C(=O)N2C)cc1
inactive: Fusarium graminearum [9] | HepG2 [10] | Pyricularia grisea [11] | Botrytis cinerea [12]

CN1C(=O)[C@H](Cc2c[nH]c3ccc([C@]45C[C@H]6C(=O)N(C)[C@H](Cc7ccccc7)C(=O)N6[C@H]4Nc4ccccc45)cc23)NC(=O)[C@H]1Cc1ccccc1
inactive: Fusarium graminearum [9] | HepG2 [10] | Pyricularia grisea [11] | Botrytis cinerea [12]

CN1C(=O)[C@H](Cc2c[nH]c3cc([C@@]45C[C@H]6C(=O)N(C)[C@H](Cc7ccccc7)C(=O)N6[C@@H]4N(C=O)c4ccccc45)ccc23)NC(=O)[C@H]1Cc1ccccc1
inactive: Fusarium graminearum [9] | HepG2 [10] | Pyricularia grisea [11] | Botrytis cinerea [12]

CN1C(=O)[C@H](Cc2cn([C@@]34C[C@H]5C(=O)N(C)[C@H](Cc6ccccc6)C(=O)N5[C@@H]3N(C=O)c3ccccc34)c3ccccc23)NC(=O)[C@H]1Cc1ccccc1
inactive: Fusarium graminearum [9] | HepG2 [10] | Pyricularia grisea [11] | Botrytis cinerea [12]

CC[C@H](C)[C@H]1NC(=O)[C@@H](NC(C)=O)[C@@H](C)OC(=O)[C@H](C(C)C)NC(=O)[C@H](Cc2ccccc2)N(C)C(=O)[C@@H]2CCCN2C(=O)[C@@H]2CCCN2C1=O
inactive: Pyricularia grisea [13] | HepG2 [14] | Botrytis cinerea [15] | Fusarium graminearum [16]
